{"source": "patent US4795639A", "about": "“Potentiating formulations” (priority 1971, dated 1989)", "key": {"[1]": {"molecular_target": "T1, hydroxymethyldihydropteridine pyrophosphokinase (HMPPS) (Escherichia coli, UniProt P26281)", "T1 construct": "obtained from an extract of E. coli; endogenous in cells; host or cells: E. coli extract; HMPPS separated from synthetase on Sephadex G-100 (method of Richey and Brown 1969)", "T1 sequence (P26281 whole entry)": "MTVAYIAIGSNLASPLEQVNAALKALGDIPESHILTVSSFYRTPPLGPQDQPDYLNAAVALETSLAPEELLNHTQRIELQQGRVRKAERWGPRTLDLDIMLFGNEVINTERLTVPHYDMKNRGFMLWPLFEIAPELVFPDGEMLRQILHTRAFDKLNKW", "test": "HMPPS assay: transfer of terminal phosphate of ATP-γ-P^32 to Pt", "assay_type": "biochemical, E. coli", "from_the_text": "(a) An assay for HMPPS was developed in which the transfer of the terminal phosphate of ATP-γ-P^32 to Pt could be monitored and correlated with the amount of inhibition of HMPPS by the compound under test.\nThe compound under test was incorporated into various formulations comprising metabolites and enzymes contained in test tubes, as indicated in TABLE 1.\nII--a source of HMMP S, obtained from an extract of E. coli and separated from `synthetase` on Sephadex G-100, according to the method of Richey and Brown in J. Biol. Chem. 244, 1582-1592 (1969)\n(§1) Control tubes 10 to 12 include a source of both HMPPS and synthetase, unlabelled ATP, 0.1M MgCl2.6H2 O and labelled pAB.\nTubes 1 to 9 containing the amounts of components shown in the Table, were filled up to 200 μl with distilled water, incubated for 60 minutes at 37° C. and then chilled on ice. Dextrose (20 μl containing 72.1 mg/ml) and hexokinase (5 μl containing 2000 units/ml) were added to the solution, which was then allowed to stand at room temperature for 15 minutes. `Darco-G-60` (Registered Trade Mark) (10 mg) was added to each tube and the contents mixed periodically for 10 minutes. The charcoal was removed through a \"Millipore AP 250 2200\" (Registered Trade Mark) filter and the filter was washed with three 10 ml portions of cold water. The Charcoal and the filter were then radioactively counted.\nThe radioactive count from the contents of tubes 2 and 3 was taken as the maximum count, since these tubes contained no test compound and thus gave 0% enzyme inhibition. The percentage inhibition produced by the contents of the remaining tubes could then be calculated by relating their radioactive count to the maximum, as determined above."}, "[2]": {"molecular_target": "T2, dihydropteroate synthetase (Escherichia coli, UniProt P0AC13)", "T2 construct": "incubating an extract of E. coli with pAB-7-C^14; endogenous in cells; host or cells: E. coli extract (synthetase separated from HMPPS on Sephadex G-100, as concluded from part (a))", "T2 sequence (P0AC13 whole entry)": "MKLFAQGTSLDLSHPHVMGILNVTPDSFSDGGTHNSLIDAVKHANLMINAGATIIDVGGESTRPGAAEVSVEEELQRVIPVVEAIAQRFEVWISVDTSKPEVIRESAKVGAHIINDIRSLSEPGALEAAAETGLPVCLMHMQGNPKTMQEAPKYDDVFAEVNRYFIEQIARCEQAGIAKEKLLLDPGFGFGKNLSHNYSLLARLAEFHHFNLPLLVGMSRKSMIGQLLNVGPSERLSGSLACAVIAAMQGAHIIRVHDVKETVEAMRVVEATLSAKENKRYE", "test": "`synthetase` assay: formation of dihydropteroate-C^14", "assay_type": "biochemical, E. coli", "experimental": "(b) The activity of the test compound against `synthetase` was determined as follows, by monitoring the formulation of dihydropteroate-C^14.\nA pool of Pt was prepared from ATP neutralised (50 μl, 0.1M), MgCl2.6H2 O (50 μl, 0.1M), dithiothreitol (100 μl, 0.1M), tris buffer (100 μl, 0.4M, pH 8.3), HMPt (25 μl, 876 μM) and 170 μl of a solution containing HMPPS. The mixture was incubated for 60 minutes at 37° C., chilled briefly on ice and then dextrose (100 μl containing 72.1 mg/ml) and hexokinase (20 μl containing 2000 units/ml) were added at room temperature to the solution, which was allowed to stand at this temperature for 15 minutes.\nA solution of MgCl2.6H2 O (10 μl, 0.1M), pAB-C^14 (10 μl, 0.4 mM), dithiothreitol (20 μl, 0.1M) and tris buffer (20 μl, 0.4M, pH8.3) was made in each of five test tubes and then 80 μl of the contents of the pool added to each, together with synthetase and/or test compound as indicated in TABLE 2. The solution was then made up to 200 μl with distilled water.\n(§2) All seven tubes were then incubated for 30 minutes at 37° C., chilled on ice and then these, together with control tubes 10 to 12 from part (a), were chromatographically analysed as follows:\n(§3) 100 μl of the contents of each of the tubes was spotted onto Whatman No. 3 MM chromatography paper (2×20 cm) at the `origin`, the run descending in a Sorenson buffer of potassium and sodium phosphates (0.1M, pH 7.0) for 10 to 15 cm."}, "[3]": {"tested_on": "HMPPS and `synthetase`", "test": "control tubes with source of both HMPPS and `synthetase`, labelled pAB, chromatographic analysis", "assay_type": "biochemical, E. coli", "settings": "1 × 10^-5 M", "experimental": "as §1\nTwo control test tubes were prepared, each containing ATP (10 μl, 0.1M), MgCl2.6H2 O (10 μl, 0.1M), dithiothreitol (20 μl, 0.1M) tris buffer (20 μl, 0.4M, pH 8.3), pAB-C^14 (10 μl, 0.4 mM), and 20 μl of a solution containing HMPPS and `synthetase` of known activity. The test compound was added to the second of these two tubes up to a final concentration of 10^-5 M, and both tubes were made up with distilled water to 200 μl.\nas §2, §3"}, "[4]": {"tested_on": "Staphylococcus aureus", "test": "M.I.C. in Wellcome Nutrient Agar, 18 hours at 37° C.", "assay_type": "cell-based"}, "[5]": {"tested_on": "Staphylococcus aureus CN 491", "test": "testing discs on standard nutrient medium", "assay_type": "cell-based", "settings": "Staphylococcus aureus, CN491; read-out: Size of zone in cm (×6 magnification)"}, "[6]": {"tested_on": "Pseudomonas aeruginosa CN 200", "test": "testing discs on standard nutrient medium", "assay_type": "cell-based", "settings": "Pseudomonas aeruginosa, CN200; read-out: Size of zone in cm (×6 magnification)"}, "[7]": {"settings": "final concn. 0.93 × 10^-4 M, tubes 8, 9"}}, "note": "Where “and” joins values, the source holds several entries; their conditions need not be identical. Identical values can stand only once.", "data": [{"smiles": "CC1(C)Nc2nc(N)nc(O)c2N=C1CO", "note": "[DMHP, 2-amino-4-hydroxy-6-hydroxymethyl-7,7-dimethyl-7,8-dihydropteridine]", "values": [{"measurement": "IC50", "setting": "[1]", "value": "2 to 4", "unit": "µM"}, {"measurement": "% Inhibn.", "setting": "[1]; [7]", "value": 95, "unit": "%"}, {"measurement": "inhibition at 93 µM", "setting": "[1]; [7]", "value": 98, "unit": "%"}, {"measurement": "% Inhibn.", "setting": "[1]; final concn. 1 × 10^-5 M, tubes 6, 7", "value": "87% and 55%"}, {"measurement": "inhibition at 2.5e-10 µM", "setting": "[1]; read-out: % Inhibn., test compound final concn., tubes 4, 5", "value": 44, "unit": "%"}, {"measurement": "% Inhibn.", "setting": "[1]; test compound final concn., tubes 4, 5", "value": 33, "unit": "%"}, {"measurement": "inhibition at 10 µM", "setting": "[2]; final concentration 1 × 10^-5 M", "value": 0, "unit": "%"}, {"measurement": "inhibition at 2.5 µM", "setting": "[2]; final concentration 2.5 × 10^-6 M", "value": 5, "unit": "%"}, {"measurement": "inhibition at 87 µM", "setting": "[2]; final concentration 8.7 × 10^-5 M", "value": 9, "unit": "%"}, {"measurement": "% Inhibn.", "setting": "[3]; Table 1 control tube 12", "value": 79, "unit": "%"}, {"measurement": "% Inhibn.", "setting": "[3]; Table 2 control tube 7", "value": 83, "unit": "%"}, {"measurement": "Sulphamethoxazole increase in Activity", "setting": "[4]; Conc. of DMHP 3.1 μg/ml", "value": 1, "unit": "×"}, {"measurement": "Trimethoprim in the Presence of × 20 sulphamethoxazol increase in Activity", "setting": "[4]; Conc. of DMHP 3.1 μg/ml", "value": 10, "unit": "×"}, {"measurement": "Trimethoprim increase in Activity", "setting": "[4]; Conc. of DMHP 3.1 μg/ml", "value": 10, "unit": "×"}, {"measurement": "Sulphamethoxazole increase in Activity", "setting": "[4]; Conc. of DMHP 6.2 μg/ml", "value": 10, "unit": "×"}, {"measurement": "Trimethoprim in the Presence of × 20 sulphamethoxazol increase in Activity", "setting": "[4]; Conc. of DMHP 6.2 μg/ml", "value": 30, "unit": "×"}, {"measurement": "Trimethoprim increase in Activity", "setting": "[4]; Conc. of DMHP 6.2 μg/ml", "value": 30, "unit": "×"}, {"measurement": "Sulphamethoxazole increase in Activity", "setting": "[4]; Conc. of DMHP 25 μg/ml", "value": 100, "unit": "×"}, {"measurement": "Trimethoprim in the Presence of × 20 sulphamethoxazol increase in Activity", "setting": "[4]; Conc. of DMHP 25 μg/ml", "value": "> 300", "unit": "×"}, {"measurement": "Trimethoprim increase in Activity", "setting": "[4]; Conc. of DMHP 25 μg/ml", "value": 300, "unit": "×"}, {"measurement": "zone of inhibition at 100 µg/disc", "setting": "[5]", "value": 0, "unit": "mm"}, {"measurement": "zone of inhibition at 100 µg/disc", "setting": "[6]", "value": 220, "unit": "mm"}]}]}
